Measured values: ChEMBL document CHEMBL5649169 (ChemMedChem, 2018)

Key:
[1] = molecular target: Protein-tyrosine kinase 2-beta (Homo sapiens) (UniProt Q14289)
Lamin-B1 (Homo sapiens) = Lamin-B1 (Homo sapiens) (UniProt P20700)
[2] = molecular target: Small nuclear ribonucleoprotein Sm D2 (Homo sapiens) (UniProt P62316)
[3] = molecular target: Serine/threonine-protein kinase ULK1 (Homo sapiens) (UniProt O75385)
[4] = molecular target: Heat shock protein 105 kDa (Homo sapiens) (UniProt Q92598)
[5] = molecular target: L-lactate dehydrogenase B chain (Homo sapiens) (UniProt P07195)
[6] = molecular target: Eukaryotic translation initiation factor 6 (Homo sapiens) (UniProt P56537)
[7] = molecular target: Small ribosomal subunit protein eS25 (Homo sapiens) (UniProt P62851)
[8] = molecular target: GTP-binding nuclear protein Ran (Homo sapiens) (UniProt P62826)
[9] = molecular target: Tyrosine-protein kinase HCK (Homo sapiens) (UniProt P08631)
[10] = molecular target: ATP-citrate synthase (Homo sapiens) (UniProt P53396)
Homo sapiens [11] = species on record: Homo sapiens
[12] = molecular target: Dual specificity protein kinase CLK1 (Homo sapiens) (UniProt P49759)
[13] = molecular target: Mammalian ependymin-related protein 1 (Homo sapiens) (UniProt Q9UM22)
[14] = molecular target: Mitochondrial carrier homolog 2 (Homo sapiens) (UniProt Q9Y6C9)
Homo sapiens [15] = species on record: Homo sapiens; remark: listed apart in the source
[16] = molecular target: Tubulin alpha-1C chain (Homo sapiens) (UniProt Q9BQE3)
[17] = molecular target: 26S proteasome regulatory subunit 7 (Homo sapiens) (UniProt P35998)
[18] = molecular target: Proto-oncogene tyrosine-protein kinase receptor Ret (Homo sapiens) (UniProt P07949)
Ephrin type-A receptor 4 = Ephrin type-A receptor 4 (Homo sapiens, UniProt P54764)
[19] = molecular target: Mitogen-activated protein kinase 15 (Homo sapiens) (UniProt Q8TD08)
[20] = molecular target: Tubulin-specific chaperone D (Homo sapiens) (UniProt Q9BTW9)
[21] = molecular target: Signal recognition particle 14 kDa protein (Homo sapiens) (UniProt P37108)
[22] = molecular target: Histone-binding protein RBBP4 (Homo sapiens) (UniProt Q09028)
[23] = molecular target: Leucine-rich repeat-containing protein 47 (Homo sapiens) (UniProt Q8N1G4)
[24] = molecular target: Protein-tyrosine kinase 6 (Homo sapiens) (UniProt Q13882)
[25] = molecular target: ATP synthase F(0) complex subunit a (Homo sapiens) (UniProt P00846)
[26] = molecular target: Protein YIPF5 (Homo sapiens) (UniProt Q969M3)
[27] = molecular target: Nuclear mitotic apparatus protein 1 (Homo sapiens) (UniProt Q14980)
[28] = molecular target: Large ribosomal subunit protein uL4 (Homo sapiens) (UniProt P36578)
[29] = molecular target: SUN domain-containing protein 2 (Homo sapiens) (UniProt Q9UH99)
[30] = molecular target: C2 domain-containing protein 5 (Homo sapiens) (UniProt Q86YS7)
[31] = molecular target: GPI-anchor transamidase component PIGS (Homo sapiens) (UniProt Q96S52)
[32] = molecular target: Sorting and assembly machinery component 50 homolog (Homo sapiens) (UniProt Q9Y512)
[33] = molecular target: Kinetochore-associated protein 1 (Homo sapiens) (UniProt P50748)
[34] = molecular target: Oxysterol-binding protein-related protein 8 (Homo sapiens) (UniProt Q9BZF1)
Homo sapiens [35] = species on record: Homo sapiens; remark: listed apart in the source
Cofilin-1 (Homo sapiens) = Cofilin-1 (Homo sapiens) (UniProt P23528)
[36] = molecular target: Phosphatidylinositol 5-phosphate 4-kinase type-2 alpha (Homo sapiens) (UniProt P48426)
[37] = molecular target: Protein RRP5 homolog (Homo sapiens) (UniProt Q14690)
Elongin-C (Homo sapiens) = Elongin-C (Homo sapiens) (UniProt Q15369)
[38] = molecular target: Eukaryotic translation initiation factor 5B (Homo sapiens) (UniProt O60841)
[39] = molecular target: Stomatin-like protein 2, mitochondrial (Homo sapiens) (UniProt Q9UJZ1)
[40] = molecular target: Alpha-internexin (Homo sapiens) (UniProt Q16352)
[41] = molecular target: Low molecular weight phosphotyrosine protein phosphatase (Homo sapiens) (UniProt P24666)
[42] = molecular target: RNA-binding protein 28 (Homo sapiens) (UniProt Q9NW13)
[43] = molecular target: Eukaryotic translation initiation factor 4 gamma 1 (Homo sapiens) (UniProt Q04637)
Homo sapiens [44] = species on record: Homo sapiens; remark: listed apart in the source
Further: assay method not described here.

Chain of ATP-citrate synthase (Homo sapiens) (P53396 whole entry): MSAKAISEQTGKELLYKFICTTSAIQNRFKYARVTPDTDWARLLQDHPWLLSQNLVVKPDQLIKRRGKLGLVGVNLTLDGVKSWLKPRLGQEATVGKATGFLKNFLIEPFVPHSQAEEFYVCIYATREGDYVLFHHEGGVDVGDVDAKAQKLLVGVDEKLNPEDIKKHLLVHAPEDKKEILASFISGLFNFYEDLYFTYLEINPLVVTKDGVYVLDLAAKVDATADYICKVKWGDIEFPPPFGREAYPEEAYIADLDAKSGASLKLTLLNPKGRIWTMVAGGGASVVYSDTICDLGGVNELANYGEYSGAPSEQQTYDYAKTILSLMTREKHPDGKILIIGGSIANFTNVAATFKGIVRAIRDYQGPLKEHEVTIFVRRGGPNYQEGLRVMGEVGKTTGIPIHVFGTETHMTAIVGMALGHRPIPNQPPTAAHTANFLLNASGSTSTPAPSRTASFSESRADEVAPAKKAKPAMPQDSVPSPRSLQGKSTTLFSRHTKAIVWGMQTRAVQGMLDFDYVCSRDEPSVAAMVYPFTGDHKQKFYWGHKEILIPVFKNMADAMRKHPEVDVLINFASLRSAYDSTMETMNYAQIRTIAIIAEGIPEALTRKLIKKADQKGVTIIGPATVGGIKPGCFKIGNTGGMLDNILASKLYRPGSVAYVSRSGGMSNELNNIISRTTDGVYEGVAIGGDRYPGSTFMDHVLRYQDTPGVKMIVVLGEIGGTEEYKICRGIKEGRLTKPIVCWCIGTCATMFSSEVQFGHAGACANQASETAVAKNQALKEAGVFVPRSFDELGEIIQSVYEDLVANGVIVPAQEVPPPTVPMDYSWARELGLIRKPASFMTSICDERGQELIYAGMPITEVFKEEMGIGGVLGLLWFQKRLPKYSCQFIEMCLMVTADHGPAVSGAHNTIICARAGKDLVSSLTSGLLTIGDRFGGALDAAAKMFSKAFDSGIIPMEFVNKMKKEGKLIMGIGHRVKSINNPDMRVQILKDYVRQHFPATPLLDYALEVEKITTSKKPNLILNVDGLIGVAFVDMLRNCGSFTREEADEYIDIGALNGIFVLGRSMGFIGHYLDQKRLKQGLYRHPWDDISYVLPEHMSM
Chain of SUN domain-containing protein 2 (Homo sapiens) (Q9UH99 whole entry, the tested form may be a part): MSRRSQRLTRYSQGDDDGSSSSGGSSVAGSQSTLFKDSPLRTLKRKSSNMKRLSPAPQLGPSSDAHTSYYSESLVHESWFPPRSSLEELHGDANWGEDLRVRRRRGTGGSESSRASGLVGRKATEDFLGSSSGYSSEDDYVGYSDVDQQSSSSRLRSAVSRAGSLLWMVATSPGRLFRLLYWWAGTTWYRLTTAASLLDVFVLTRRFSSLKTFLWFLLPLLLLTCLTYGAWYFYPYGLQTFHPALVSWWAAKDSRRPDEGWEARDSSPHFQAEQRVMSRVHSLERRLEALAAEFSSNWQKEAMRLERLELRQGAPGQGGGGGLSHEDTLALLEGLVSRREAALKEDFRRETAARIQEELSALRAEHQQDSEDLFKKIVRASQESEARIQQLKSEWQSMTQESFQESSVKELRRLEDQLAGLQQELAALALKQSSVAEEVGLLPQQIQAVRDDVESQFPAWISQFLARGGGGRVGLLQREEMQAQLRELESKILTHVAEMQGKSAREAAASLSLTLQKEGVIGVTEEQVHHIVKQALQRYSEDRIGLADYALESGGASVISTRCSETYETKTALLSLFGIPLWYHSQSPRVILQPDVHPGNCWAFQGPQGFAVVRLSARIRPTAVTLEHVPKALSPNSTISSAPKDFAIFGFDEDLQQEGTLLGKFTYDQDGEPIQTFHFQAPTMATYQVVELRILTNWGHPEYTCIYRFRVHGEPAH
Chain of Mitogen-activated protein kinase 15 (Homo sapiens) (Q8TD08 whole entry): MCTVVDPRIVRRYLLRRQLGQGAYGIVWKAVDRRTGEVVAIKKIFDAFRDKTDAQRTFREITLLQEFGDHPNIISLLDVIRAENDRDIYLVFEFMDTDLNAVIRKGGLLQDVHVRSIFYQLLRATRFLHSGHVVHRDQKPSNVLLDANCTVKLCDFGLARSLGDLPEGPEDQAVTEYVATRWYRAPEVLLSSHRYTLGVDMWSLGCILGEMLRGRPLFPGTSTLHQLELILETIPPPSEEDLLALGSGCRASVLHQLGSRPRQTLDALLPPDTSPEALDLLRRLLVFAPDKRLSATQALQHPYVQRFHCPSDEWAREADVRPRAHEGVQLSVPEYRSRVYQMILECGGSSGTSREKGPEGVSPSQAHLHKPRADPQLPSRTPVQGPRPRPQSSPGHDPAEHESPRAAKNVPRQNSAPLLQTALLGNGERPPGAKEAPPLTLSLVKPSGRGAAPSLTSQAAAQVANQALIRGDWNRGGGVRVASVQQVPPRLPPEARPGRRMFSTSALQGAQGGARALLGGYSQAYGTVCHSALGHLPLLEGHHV
Chain of L-lactate dehydrogenase B chain (Homo sapiens) (P07195 2-334 limits assumed): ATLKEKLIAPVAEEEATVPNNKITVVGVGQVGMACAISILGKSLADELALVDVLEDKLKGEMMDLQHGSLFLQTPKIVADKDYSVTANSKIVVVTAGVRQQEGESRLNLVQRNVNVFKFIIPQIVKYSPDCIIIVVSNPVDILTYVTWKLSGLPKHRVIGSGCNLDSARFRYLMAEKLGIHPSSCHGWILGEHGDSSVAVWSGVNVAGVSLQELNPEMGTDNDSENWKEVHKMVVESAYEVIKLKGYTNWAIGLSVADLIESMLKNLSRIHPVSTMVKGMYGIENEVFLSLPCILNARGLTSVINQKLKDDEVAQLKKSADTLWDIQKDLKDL
Chain of C2 domain-containing protein 5 (Homo sapiens) (Q86YS7 whole entry, the tested form may be a part): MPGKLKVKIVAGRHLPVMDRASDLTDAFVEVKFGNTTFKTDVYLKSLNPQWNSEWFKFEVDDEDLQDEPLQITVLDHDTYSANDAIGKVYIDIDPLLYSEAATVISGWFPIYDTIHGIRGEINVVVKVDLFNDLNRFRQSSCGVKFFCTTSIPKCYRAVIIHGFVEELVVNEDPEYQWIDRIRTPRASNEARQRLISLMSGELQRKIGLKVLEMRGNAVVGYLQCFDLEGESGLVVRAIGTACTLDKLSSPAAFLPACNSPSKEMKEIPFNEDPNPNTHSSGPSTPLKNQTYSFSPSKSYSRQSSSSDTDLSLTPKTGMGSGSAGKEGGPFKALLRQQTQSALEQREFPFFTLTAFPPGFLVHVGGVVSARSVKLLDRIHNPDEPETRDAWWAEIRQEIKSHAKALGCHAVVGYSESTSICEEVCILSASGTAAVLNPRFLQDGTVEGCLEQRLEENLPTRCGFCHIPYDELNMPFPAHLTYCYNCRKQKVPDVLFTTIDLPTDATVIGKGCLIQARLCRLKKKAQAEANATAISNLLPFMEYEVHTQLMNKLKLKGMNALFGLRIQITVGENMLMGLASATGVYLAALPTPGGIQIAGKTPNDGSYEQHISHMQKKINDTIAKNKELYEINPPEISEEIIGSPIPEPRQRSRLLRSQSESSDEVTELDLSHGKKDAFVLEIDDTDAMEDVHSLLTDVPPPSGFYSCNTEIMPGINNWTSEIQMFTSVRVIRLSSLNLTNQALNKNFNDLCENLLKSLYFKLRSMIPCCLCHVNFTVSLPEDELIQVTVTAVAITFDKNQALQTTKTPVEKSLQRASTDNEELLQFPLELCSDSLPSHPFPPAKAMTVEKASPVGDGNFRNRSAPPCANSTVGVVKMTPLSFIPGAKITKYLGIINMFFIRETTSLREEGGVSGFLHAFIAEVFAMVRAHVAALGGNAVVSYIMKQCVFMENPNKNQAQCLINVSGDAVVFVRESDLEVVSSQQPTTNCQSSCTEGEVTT
Chain of Oxysterol-binding protein-related protein 8 (Homo sapiens) (Q9BZF1 whole entry): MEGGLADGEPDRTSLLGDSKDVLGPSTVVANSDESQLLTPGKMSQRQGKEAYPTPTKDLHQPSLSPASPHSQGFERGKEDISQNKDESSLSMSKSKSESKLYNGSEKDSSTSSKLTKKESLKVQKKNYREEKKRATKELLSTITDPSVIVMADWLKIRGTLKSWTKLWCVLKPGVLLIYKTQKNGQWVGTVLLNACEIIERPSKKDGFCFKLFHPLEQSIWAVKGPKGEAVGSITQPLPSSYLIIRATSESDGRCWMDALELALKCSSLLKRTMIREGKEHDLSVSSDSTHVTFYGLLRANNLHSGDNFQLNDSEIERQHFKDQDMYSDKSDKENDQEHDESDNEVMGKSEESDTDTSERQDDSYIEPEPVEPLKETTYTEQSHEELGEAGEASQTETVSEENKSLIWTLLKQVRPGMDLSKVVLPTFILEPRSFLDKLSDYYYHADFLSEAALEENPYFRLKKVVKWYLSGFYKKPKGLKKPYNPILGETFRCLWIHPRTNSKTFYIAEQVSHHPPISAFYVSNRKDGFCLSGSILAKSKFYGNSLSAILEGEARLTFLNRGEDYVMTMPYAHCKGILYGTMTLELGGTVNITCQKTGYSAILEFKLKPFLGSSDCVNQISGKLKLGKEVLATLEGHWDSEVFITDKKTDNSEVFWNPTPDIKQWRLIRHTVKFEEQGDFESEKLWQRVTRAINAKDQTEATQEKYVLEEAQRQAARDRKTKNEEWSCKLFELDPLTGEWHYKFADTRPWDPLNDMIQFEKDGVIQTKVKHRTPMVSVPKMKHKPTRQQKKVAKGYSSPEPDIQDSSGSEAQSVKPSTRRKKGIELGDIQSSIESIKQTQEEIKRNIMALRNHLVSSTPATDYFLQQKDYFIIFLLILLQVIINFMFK
Chain of Mammalian ependymin-related protein 1 (Homo sapiens) (Q9UM22 whole entry): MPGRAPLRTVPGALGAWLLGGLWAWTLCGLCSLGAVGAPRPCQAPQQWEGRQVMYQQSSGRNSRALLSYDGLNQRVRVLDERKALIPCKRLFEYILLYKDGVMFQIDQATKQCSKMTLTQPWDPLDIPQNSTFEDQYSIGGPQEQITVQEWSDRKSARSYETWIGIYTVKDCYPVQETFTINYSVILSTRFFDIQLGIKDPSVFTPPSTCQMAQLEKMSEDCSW
Chain of Cofilin-1 (Homo sapiens) (P23528 whole entry): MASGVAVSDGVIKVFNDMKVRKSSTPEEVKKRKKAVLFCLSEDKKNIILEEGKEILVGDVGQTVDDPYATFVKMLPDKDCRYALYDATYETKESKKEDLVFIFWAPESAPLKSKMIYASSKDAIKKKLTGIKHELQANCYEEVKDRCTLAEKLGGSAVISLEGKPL

Compound `Cc1ccc(C(=O)Nc2cccc(C(F)(F)F)c2)cc1Nc1nc(-c2cccnc2)nc2nn(C)cc12` has an ED50 [1] of 36.6 µM, an ED50 (Lamin-B1 (Homo sapiens)) of 0.42 µM and an ED50 [2] of 9770 µM. The ED50 [3] was 0.55 µM, the ED50 [4] was 8.65 µM and the ED50 [5] was 9.99 µM. For the same compound, the ED50 [6] was 0.223 µM, the ED50 [7] was 0.2 µM and the ED50 [8] was 0.116 µM. It also gave an ED50 [9] of 0.0555 µM, an ED50 [10] of 21.4 µM and an ED50 (Homo sapiens [11]) of 0.217 µM. It also gave an ED50 [12] of 0.000313 µM, an ED50 [13] of 0.016 µM and an ED50 [14] of 0.13 µM. For the same compound, the ED50 (Homo sapiens [15]) was 0.00606 µM, the ED50 [16] was 9.37 µM and the ED50 [17] was 232 µM. For the same compound, the ED50 [18] was 0.0063 µM, the ED50 (Ephrin type-A receptor 4) was 5.1 µM and the ED50 [19] was 0.0373 µM. It also gave an ED50 [20] of 0.00542 µM, an ED50 [21] of 3.59 µM and an ED50 [22] of 0.458 µM. The ED50 [23] was 0.00913 µM, the ED50 [24] was 68.5 µM and the ED50 [25] was 0.622 µM. For the same compound, the ED50 [26] was 0.0595 µM, the ED50 [27] was 0.0318 µM and the ED50 [28] was 24.9 µM. It also gave an ED50 [29] of 0.111 µM, an ED50 [30] of 0.0663 µM and an ED50 [31] of 0.255 µM. The ED50 [32] was 0.00806 µM, the ED50 [33] was 0.0543 µM and the ED50 [34] was 650 µM. For the same compound, the ED50 (Homo sapiens [35]) was 481 µM, the ED50 (Cofilin-1 (Homo sapiens)) was 0.0624 µM and the ED50 [36] was 83.4 µM. For the same compound, the ED50 [37] was 0.0717 µM, the ED50 (Elongin-C (Homo sapiens)) was 0.682 µM and the ED50 [38] was 383 µM. The ED50 [39] was 0.0386 µM, the ED50 [40] was 1.7 µM and the ED50 [41] was 0.0395 µM. For the same compound, the ED50 [42] was 1.75 µM, the ED50 [43] was 0.0778 µM and the ED50 (Homo sapiens [44]) was 0.00782 µM.
With `Cc1ccc(C(=O)Nc2cccc(C(F)(F)F)c2)cc1Nc1nc(-c2cccnc2)nc2c1cnn2C` the ED50 [1] was 0.433 µM, the ED50 (Lamin-B1 (Homo sapiens)) was 13.8 µM and the ED50 [2] was 42.7 µM. The ED50 [3] was 3.6 µM, the ED50 [4] was 2.99 µM and the ED50 [5] was 0.00831 µM. For the same compound, the ED50 [6] was 3 µM, the ED50 [7] was 2.64 µM and the ED50 [8] was 4.29 µM. For the same compound, the ED50 [9] was 22 µM, the ED50 [10] was 12.3 µM and the ED50 (Homo sapiens [11]) was 0.878 µM. For the same compound, the ED50 [12] was 32.5 µM, the ED50 [13] was 0.362 µM and the ED50 [14] was 0.0279 µM. The ED50 (Homo sapiens [15]) was 16.8 µM, the ED50 [16] was 0.00564 µM and the ED50 [17] was 84.1 µM. For the same compound, the ED50 [18] was 5.11 µM, the ED50 (Ephrin type-A receptor 4) was 1.13 µM and the ED50 [19] was 0.026 µM. The ED50 [20] was 0.00459 µM, the ED50 [21] was 20.3 µM and the ED50 [22] was 11 µM. For the same compound, the ED50 [23] was 0.0207 µM, the ED50 [24] was 5.95 µM and the ED50 [25] was 0.677 µM. It also gave an ED50 [26] of 1.94 µM, an ED50 [27] of 0.000308 µM and an ED50 [28] of 4.73 µM. The ED50 [29] was 13.5 µM, the ED50 [30] was 0.0177 µM and the ED50 [31] was 0.0298 µM. The ED50 [32] was 0.784 µM, the ED50 [33] was 14 µM and the ED50 [34] was 0.128 µM. The ED50 (Homo sapiens [35]) was 0.0217 µM, the ED50 (Cofilin-1 (Homo sapiens)) was 7.3 µM and the ED50 [36] was 0.0993 µM. It also gave an ED50 [37] of 0.0339 µM, an ED50 (Elongin-C (Homo sapiens)) of 122 µM and an ED50 [38] of 41.8 µM. It also gave an ED50 [39] of 0.0199 µM, an ED50 [40] of 0.306 µM and an ED50 [41] of 67.2 µM. It also gave an ED50 [42] of 0.021 µM, an ED50 [43] of 0.0238 µM and an ED50 (Homo sapiens [44]) of 3.11 µM.
